{"source": "patent US9616082B2", "about": "“Antitumor agent including irinotecan hydrochloride hydrate” (TAIHO PHARMACEUTICAL CO., LTD., priority 2013, dated 2017)", "key": {"[1]": {"tested_on": "human colon cancer cell line (KM20C)", "experiment": "Survival of mice intraperitoneally transplanted with KM20C (Reference Example)", "type": "in vivo, BALB/cA Jcl-nu mice", "settings": "i.v., weekly; for ILS (increase in life span): 6 weeks from Day 3; for Survival time (day) Mean ± SD: 6 weeks from Day 3, n=10", "procedure": "Cultured cells (1×10^7 cells/mouse) of human colon cancer cell line (KM20C) were intraperitoneally transplanted into 5-6 weeks old BALB/cA Jcl-nu mice after birth, and the mice were assigned to each group so that the mean body weight of each group became equal. The date on which such grouping (n=10) was performed was taken as Day 0.\n[…]. Starting the dug administration from Day 3, a 5-days' daily oral administration of the FTD/TPI combination drug with 2-days' rest was performed for 6 weeks, and CPT-11 was administered once in a week from the tail vein for 6 weeks.\nAs an index of the antitumor effect, the number of survivors of each group of mice and the survival time of each group was compared."}, "colorectal cancer": {"tested_on": "colorectal cancer", "experiment": "Combination therapy in a colorectal cancer patient, 28-day cycle schedule", "type": "in vivo, human", "settings": "28-day cycle: FTD/TPI two times 5-days' administration with 2-days' rest then 2 weeks rest, CPT-11 once in 2 weeks, side effects appeared strongly", "procedure": "In view of this situation, when a combination therapy comprising repeating a 28-day cycle consisting of two times of 5-days' administration with 2-days' rest of an FTD/TPI combination drug, followed by rest of the drug administration for 2 weeks, and an administration of CPT-11 once in 2 weeks was performed in a colorectal cancer patient on the basis of an administration schedule in which effects of each drug have previously been reported as in Reference Example described later, only about 30% of the predetermined amount of CPT-11 could be administered because side effects appeared strongly. Since antitumor effect is generally proportional to the total dose, the present inventors have studied on administration schedule which can suppress the occurrence of side effects and in which a predetermined amount can be administered."}, "[2]": {"tested_on": "human gastric cancer cell line (SC-2)", "experiment": "Combined administration test, SC-2 tumor (Example 2)", "settings": "CPT-11 100 mg/kg/day, Day 1, 15, i.v., q.d.; on Day 15"}, "[3]": {"settings": "Kiso to Rinsho, (1990), Vol. 24, No. 14, 7-17; cited from earlier work"}}, "note": "Where a name gives a salt, the structure may show the parent alone.", "data": [{"compound": "CCc1c2c(nc3ccc(OC(=O)N4CCC(N5CCCCC5)CC4)cc13)-c1cc3c(c(=O)n1C2)COC(=O)[C@]3(O)CC", "note": "[CPT-11, irinotecan hydrochloride hydrate]", "values": [{"measurement": "ILS (increase in life span)", "setting": "[1]; CPT-11 80 mg/kg/day", "value": 54.0, "unit": "%"}, {"measurement": "Survival time (day) Mean ± SD", "setting": "[1]; CPT-11 80 mg/kg/day", "value": "61.6 ± 12.6", "unit": "days"}, {"measurement": "ILS (increase in life span)", "setting": "[1]; CPT-11 100 mg/kg/day", "value": 81.3, "unit": "%"}, {"measurement": "Survival time (day) Mean ± SD", "setting": "[1]; CPT-11 100 mg/kg/day", "value": "72.5 ± 12.3", "unit": "days"}, {"measurement": "share of the predetermined amount of CPT-11 that could be administered", "setting": "colorectal cancer", "value": "about 30%"}, {"measurement": "TGI (tumor growth inhibition rate)", "setting": "[2]", "value": 78.2, "unit": "%"}, {"measurement": "dose at which a death case was reported", "setting": "[3]", "value": 111, "unit": "mg/kg/day"}]}]}
